Some test systems named below: HL-60(TB) leukemia; SF-295 CNS; A498 renal; UO-31 renal; OVCAR-4 ovarian; NCI-H226 lung; MALME-3M melanoma; OVCAR-5 ovarian; MCF7 breast; COLO 205 colon; LOX IMVI melanoma; SK-MEL-28 melanoma.
What all share (experiment): NCI tumour cell line growth inhibition, 48 h

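Assay format: 96-well plates, 48-hour exposure. At the TGI there is no net growth.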

`CC12CCC(C(=O)OC1=O)C2(C)C` (stereo unspecified): the TGI with HL-60(TB) leukemia, with SF-295 CNS, in the test with A498 renal, with UO-31 renal, with OVCAR-4 ovarian and in the test with NCI-H226 lung was over 100 µM each time. The TGI in the test with MALME-3M melanoma, in the test with OVCAR-5 ovarian, in the test on MCF7 breast, with COLO 205 colon, in the test with LOX IMVI melanoma and in the test with SK-MEL-28 melanoma was over 100 µM throughout.

In the case of `CN(Nc1cc(=O)[nH]c(=O)[nH]1)c1ccccc1`, the TGI with HL-60(TB) leukemia, with SF-295 CNS, in the test on A498 renal, in the test on UO-31 renal, in the test on OVCAR-4 ovarian and in the test with NCI-H226 lung was over 100 µM throughout. Also, the TGI in the test with MALME-3M melanoma, in the test with OVCAR-5 ovarian, in the test on MCF7 breast, in the test on COLO 205 colon, in the test with LOX IMVI melanoma and in the test on SK-MEL-28 melanoma was over 100 µM each time.

Turning to `OCC1OC(n2cnc3c2NC=NC[C@H]3O)C(O)C1O` (stereo partly specified), the TGI in the test on HL-60(TB) leukemia is 284 µM; with SF-295 CNS it was over 450 µM; in the test with A498 renal it was over 450 µM; with UO-31 renal, over 450 µM; with OVCAR-4 ovarian it was over 450 µM; in the test on NCI-H226 lung, over 273 µM. Moreover, the TGI with MALME-3M melanoma, in the test on OVCAR-5 ovarian, with MCF7 breast, with COLO 205 colon, in the test with LOX IMVI melanoma and in the test with SK-MEL-28 melanoma was over 450 µM in each case.

As for `O=C(O)c1ccc(NNc2cc(=O)[nH]c(=O)[nH]2)cc1`, the TGI in the test with HL-60(TB) leukemia, with SF-295 CNS, in the test on A498 renal, in the test on UO-31 renal, with OVCAR-4 ovarian and in the test on NCI-H226 lung was over 100 µM throughout. The TGI in the test on MALME-3M melanoma, with OVCAR-5 ovarian, with MCF7 breast, with COLO 205 colon, in the test with LOX IMVI melanoma and in the test on SK-MEL-28 melanoma was over 100 µM throughout.

On to `NC(CCC(=O)NC(CSC(=O)N(O)c1ccc(Br)cc1)C(=O)NCC(=O)O)C(=O)O` (stereo unspecified), for which the TGI with HL-60(TB) leukemia, in the test with SF-295 CNS, in the test with A498 renal, with UO-31 renal, in the test with OVCAR-4 ovarian and in the test with NCI-H226 lung was over 100 µM each time. Besides, the TGI with MALME-3M melanoma was over 100 µM; in the test with OVCAR-5 ovarian it was over 100 µM; in the test with MCF7 breast, over 50 µM; with COLO 205 colon, over 100 µM; in the test with LOX IMVI melanoma, over 100 µM; in the test with SK-MEL-28 melanoma, over 100 µM.

In the case of `CN1CCOC1(C)CO` (stereo unspecified), the TGI with HL-60(TB) leukemia, in the test on SF-295 CNS, with A498 renal, with UO-31 renal, in the test with OVCAR-4 ovarian and in the test with NCI-H226 lung was over 100 µM in each case. Besides, the TGI in the test with MALME-3M melanoma, in the test on OVCAR-5 ovarian, in the test on MCF7 breast, in the test on COLO 205 colon and in the test on LOX IMVI melanoma was over 100 µM throughout.

On to `C/C(=N\Nc1cc(CN2CCCC2)c(-c2ccc(Cl)cc2)nn1)C(=O)O`, for which the TGI in the test with HL-60(TB) leukemia, in the test on SF-295 CNS, in the test with A498 renal, in the test on UO-31 renal, with OVCAR-4 ovarian and in the test with NCI-H226 lung was over 100 µM in each case. Moreover, the TGI in the test with MALME-3M melanoma, with OVCAR-5 ovarian, with MCF7 breast, with COLO 205 colon, with LOX IMVI melanoma and with SK-MEL-28 melanoma was over 100 µM each time.

As for `N#Cc1c(-c2ccccc2)[nH]c2ccccc2c1=O`, the TGI in the test with HL-60(TB) leukemia was over 100 µM; with SF-295 CNS it was 66.7 µM; in the test with A498 renal, over 100 µM; in the test on OVCAR-4 ovarian, over 100 µM; in the test with NCI-H226 lung it was over 100 µM; in the test with MALME-3M melanoma, over 100 µM. The TGI in the test on OVCAR-5 ovarian, in the test on MCF7 breast, with COLO 205 colon, in the test on LOX IMVI melanoma and with SK-MEL-28 melanoma was over 100 µM in each case.

Take `CCOC(=O)CC1c2ccc(O)cc2OC(=O)C1c1ccc([N+](=O)[O-])cc1` (stereo unspecified): the TGI was 60 µM in the test on HL-60(TB) leukemia; over 100 µM in the test on SF-295 CNS; 89.1 µM in the test on A498 renal; 92.3 µM in the test with OVCAR-4 ovarian; 58.4 µM in the test with NCI-H226 lung; 70.3 µM in the test on MALME-3M melanoma. The TGI with OVCAR-5 ovarian is over 100 µM; in the test with MCF7 breast, 40.9 µM; in the test with COLO 205 colon it was 33 µM; in the test with LOX IMVI melanoma it was over 100 µM; with SK-MEL-28 melanoma, over 100 µM.

On to `CC(C)=CCS(=O)c1ccccc1NC1=CC(=O)CC(C)(C)C1` (stereo unspecified), for which the TGI with HL-60(TB) leukemia, with A498 renal, in the test with UO-31 renal, in the test on OVCAR-4 ovarian, in the test with NCI-H226 lung and in the test with MALME-3M melanoma was over 100 µM throughout. In addition, the TGI in the test on OVCAR-5 ovarian, with MCF7 breast, in the test on COLO 205 colon, with LOX IMVI melanoma and in the test with SK-MEL-28 melanoma was over 100 µM in each case.

These data come from PubChem BioAssay (NCI).
